The nature of data set [1]: Thermal stability of the crystalline form (XRPD).
A short description of data set [2]: Dissolution rate in water at 37° C. In kind it is physicochemical. Conditions: 2 mg of product in 40 mL of water at 37° C., 500 rpm, absorbance at 260 nm. On the procedure:
(§1) The sample of 6-(1H-imidazol-1-yl)-2-phenylquinazoline phosphate, form A, is stirred in an aqueous solution of NaCl 0.9%, at 500 rpm, so as to obtain a suspension (70 mg in 2 mL), for 24 hours at 37° C. […] The dissolution rate is measured by adding 2 mg of product to 40 mL of water at 37° C., stirring at 500 rpm, and measuring the absorbance at 260 nm every 0.05 min; the dissolution rate is found to be 1.9×10^−4 gr/min.

Data set [3] in a line: Hygroscopicity noted for the isolated crystalline product. In kind it is physicochemical. Conditions: as noted in the preparation example.
The nature of data set [4]: Stability to moisture, DVS analysis (Differential Vapour Sorption). The data set is classed as physicochemical. The following applies: 25° C.; for hygroscopicity (DVS): hydration/dehydration cycle. On the procedure:
The sample placed on a microbalance is subjected, in a chamber of controlled humidity, at 25° C., to a cycle of hydration (increasing humidity, red line) and of dehydration (decreasing humidity, blue line).
The sample of 6-(1H-imidazol-1-yl)-2-phenylquinazoline succinate form A was subjected to DVS analysis (as described in Example 32).
The sample of 6-(1H-imidazol-1-yl)-2-phenylquinazoline L-tartrate dihydrate, form A, was subjected to DVS analysis.
The sample of 6-(1H-imidazol-1-yl)-2-phenylquinazoline maleate, form A, was subjected to DVS analysis.

A short description of data set [5]: Pharmacokinetics in rats, oral versus intravenous administration. In kind it is in vivo. Conditions: for half-life: read-out: T½. The protocol:
The samples are analysed by HPLC-MS to determine the content of 6-(1H-imidazol-1-yl)-2-phenylquinazoline, using diphenylhydramine hydrochloride as internal standard. The pharmacokinetic parameters measured are summarized hereinbelow: it is noted that, despite the fact that the polymorph under consideration is of low solubility, the bioavailability (F %) is entirely acceptable.
The pharmacokinetic parameters measured are summarized hereinbelow: it is noted that the salt under consideration has optimum bioavailability (F %). […]

Data set [6] can be described thus: Solubility in aqueous solution of NaCl 0.9% (UV absorbance at 260 nm). The following applies: aqueous NaCl 0.9%, stirred 500 rpm, 24 hours at 37° C.; for solubility at 24 h: aqueous solution of NaCl 0.9%, 37 °C, saline or isotonic, thermodynamic from solid. The data set is classed as physicochemical. On the procedure:
The solubility is 0.6 mg/mL. […]
The sample of 6-(1H-imidazol-1-yl)-2-phenylquinazoline phosphate, form A, is stirred in an aqueous solution of NaCl 0.9%, at 500 rpm, so as to obtain a suspension (50 mg in 2 mL), for 24 hours at 37° C.
as §1

The nature of data set [7]: Stability to mechanical stress (milling, XRPD). The data set is classed as physicochemical. Conditions: Retsch MM 200 mill, 50 Hz, 5 min. The protocol:
6-(1H-Imidazol-1-yl)-2-phenylquinazoline, polymorph A, was subjected to milling by means of a Retsch MM 200 mill, at 50 Hz for 5 min., and the product thus obtained was analysed by XRPD.
6-(1H-Imidazol-1-yl)-2-phenylquinazoline succinate form A, was subjected to milling by means of a Retsch MM 200 mill, at 50 Hz for 5 min., and the product thus obtained was subjected to XRPD analysis.
6-(1H-Imidazol-1-yl)-2-phenylquinazoline L-tartrate dihydrate, form A, was subjected to milling by means of a Retsch MM 200 mill, at 50 Hz for 5 min., and the product thus obtained was subjected to XRPD analysis.
6-(1H-Imidazol-1-yl)-2-phenylquinazoline maleate, form A, was subjected to milling by means of a Retsch MM 200 mill, at 50 Hz for 5 min., and the product thus obtained was subjected to XRPD analysis.

Setting [8] is: 90° C., 12 hours (or at least 12 hours), XRPD.
The mark [9] stands for this setting: IV, 5 mg/kg, dihydrochloride monohydrate.
The mark [10] stands for this setting: OS (oral), 10 mg/Kg, dihydrochloride monohydrate.
[11] abbreviates: heating at/to 90° C., time not stated, succinate.

The source of these data is patent US9174966B2, “Crystalline forms of 6-(1H-imidazol-1-yl)-2-phenylquinazoline” (ROTTAPHARM S.P.A., priority 2009, dated 2015).

Values joined by “and” are separate entries in the source; they are usually repeats but may differ in a detail not shown here. Equal entries are not always repeated. “Also recorded” adds a separate entry of the source. Structures can show the parent of a compound that is named as a salt. Where two headings read alike, the source gives them in different places.

Regarding “6-(1H-imidazol-1-yl)-2-phenylquinazoline maleate hemihydrate [maleate salt form B]”, the “thermal stability of crystalline form” value is listed as “partially converted into form A” in data set [1] (40° C., RH 85%, 7 days, XRPD) and “converted into form A” in data set [1] (setting [8]).
What is called Tmax is the time at which the peak concentration occurs. A word on the solubility: it is the dissolved amount per volume that the medium holds. The low end stands for a poorly soluble substance, the high end for a readily soluble substance. For the compound `c1ccc(-c2ncc3cc(-n4ccnc4)ccc3n2)cc1` [dihydrochloride monohydrate form A, 6-(1H-imidazol-1-yl)-2-phenylquinazoline dihydrochloride monohydrate], in data set [1] (40° C., RH 85%, 7 days, XRPD, dihydrochloride monohydrate), the “thermal stability of crystalline form” value is “stable”. For the same compound, in data set [1] (90° C., VT-XRPD), the “time after which complete conversion into the monohydrochloride is noted” value came out at 48 h and the “time after which formation of the monohydrochloride is noted” value worked out at 36 h. In addition, in data set [1] (90° C., several hours), the “thermal stability of crystalline form” value was “stable”. Also, the dissolution rate in data set [2] is on record as 2.17×10^−3 gr/min. The “hygroscopicity of the isolated product” value in data set [3] was “non-hygroscopic”. Besides, the “hygroscopicity (DVS)” value in data set [4] was “in the range 30-80% relative humidity (RH), the product is not particularly hygroscopic”. In addition, the “water content (DVS)” value in data set [4] (range 30-80% relative humidity) is recorded as “about 5%”. Further, in data set [5] (setting [9]), the CL is 24 mL/min/kg, the T½ turned out to be 46.6 min and the V is 1.26 L/kg. For the same compound, the “F (bioavailability)” value in data set [5] (OS 10 mg/Kg compared with IV 5 mg/kg, dihydrochloride monohydrate) is recorded as 90.0%. Besides, in data set [5] (setting [10]), the CL came to 18 mL/min/kg, the time of peak concentration (Tmax) was determined as 80 min, the T½ came out at 59.9 min and the V came out at 2.96 L/kg. This compound registered a solubility at 24 h in data set [6] of 138000 µg/mL. In data set [7] (dihydrochloride monohydrate), the stability to milling result is on record as “No increase in the amount of amorphous product present relative to the reference example, as well as no foreign signals attributable to other forms”.
`c1ccc(-c2ncc3cc(-n4ccnc4)ccc3n2)cc1` [form B, 6-(1H-imidazol-1-yl)-2-phenylquinazoline monohydrate]: the “thermal stability of crystalline form” value in data set [1] (40° C., RH 85%, 7 days, XRPD, monohydrate) is recorded as “appearance of the signals of form E”. In addition, the “behaviour in variable temperature experiment (VT-XRPD)” value in data set [1] (heated to between 40° C. and 180° C.) is reported as “conversion into form E”.
As for `c1ccc(-c2ncc3cc(-n4ccnc4)ccc3n2)cc1` [form C, 6-(1H-imidazol-1-yl)-2-phenylquinazoline monohydrate], the “thermal stability of crystalline form” value in data set [1] (40° C., RH 85%, 5 days (at least 5 days for polymorph A), XRPD) was “stable”; in data set [1] (90° C., 3 hours, XRPD, monohydrate), “complete conversion into form E”.
As to `c1ccc(-c2ncc3cc(-n4ccnc4)ccc3n2)cc1` [form D, 6-(1H-imidazol-1-yl)-2-phenylquinazoline], the “thermal stability of crystalline form” value in data set [1] (40° C., RH 85%, 7 days, XRPD) is listed as “stable”; in data set [1] (90° C., 3 hours, XRPD), “stable”.
Consider `O=C(O)/C=C/C(=O)O.c1ccc(-c2ncc3cc(-n4ccnc4)ccc3n2)cc1` [fumarate form A, 6-(1H-imidazol-1-yl)-2-phenylquinazoline fumarate], for which, in data set [1] (40° C., RH 85%, 7 days, XRPD), the “thermal stability of crystalline form” value was “stable”. In addition, the dissolution rate in data set [2] was 2.67×10^−5 gr/min. The “hygroscopicity of the isolated product” value in data set [3] is recorded as “non-hygroscopic”. The same compound gave a solubility at 24 h in data set [6] of 1200 µg/mL.
On to `Cl.c1ccc(-c2ncc3cc(-n4ccnc4)ccc3n2)cc1` [hydrochloride salt form B, 6-(1H-imidazol-1-yl)-2-phenylquinazoline hydrochloride], for which, in data set [3], the “hygroscopicity of the isolated product” value was “hygroscopic”.
A word on the bioavailability: it is the share of a dose that reaches the circulation, judged against a reference dose that is usually intravenous. With `O=C(O)/C=C\C(=O)O.c1ccc(-c2ncc3cc(-n4ccnc4)ccc3n2)cc1` [maleate form A, 6-(1H-imidazol-1-yl)-2-phenylquinazoline maleate], the “thermal stability of crystalline form” value is given as “stable” in data set [1] (40° C., 70% RH, 7 days, XRPD) and “stable” in data set [1] (setting [8]). In addition, the dissolution rate in data set [2] is on record as 1.45×10^−3 gr/min. Further, the “hygroscopicity of the isolated product” value in data set [3] is “non-hygroscopic”. In data set [4] (maleate), the “hygroscopicity (DVS)” value was “not hygroscopic in the range 0-85% RH; also recorded: not particularly hygroscopic even at values of greater than 85% RH”. The V in data set [5] (IV, 5 mg/kg) turned out to be 1.3 L/kg; in data set [5] (OS (oral), 10 mg/Kg), 1.90 L/kg. The same compound displayed a CL in data set [5] (OS (oral), 10 mg/Kg) of 16 mL/min/kg. The bioavailability in data set [5] (rat, blood, OS 10 mg/Kg compared with IV 5 mg/kg, read-out: F (bioavailability)) stood at 100%. In data set [5] (rat, blood, iv, 5 mg/kg), this compound yielded a clearance of 22 mL/min/kg. Besides, the half-life in data set [5] (rat, blood, iv, 5 mg/kg, IV, 5 mg/kg) is 45.6 min; in data set [5] (rat, blood, po, 10 mg/kg, OS (oral), 10 mg/Kg), 45 min. Also, the Tmax in data set [5] (rat, blood, po, 10 mg/kg, OS (oral), 10 mg/Kg, read-out: Tmax (converted)) is 60 min. Also, the solubility at 24 h in data set [6] amounted to 7900 µg/mL. Also, the stability to milling result in data set [7] is on record as “has not undergone any changes of crystalline form, but a slight increase in the presence of amorphous product is revealed, which recrystallizes within a few hours on standing”.
For `O=P(O)(O)O.c1ccc(-c2ncc3cc(-n4ccnc4)ccc3n2)cc1` [phosphate, form A, 6-(1H-imidazol-1-yl)-2-phenylquinazoline phosphate], in data set [2] (phosphate), the dissolution rate was 1.73×10^−4 gr/min and 1.9×10^−4 gr/min. This compound also registered a solubility in data set [6] (phosphate) of 3600 µg/mL. In addition, in data set [6], the solubility at 24 h came out at 6200 µg/mL.
In the case of `O=C(O)CCC(=O)O.c1ccc(-c2ncc3cc(-n4ccnc4)ccc3n2)cc1` [succinate salt form B, 6-(1H-imidazol-1-yl)-2-phenylquinazoline succinate], the “thermal stability of crystalline form” value in data set [1] (setting [11]) is “converted into form A”. The “hygroscopicity of the isolated product” value in data set [3] (succinate) is “non-hygroscopic”.
On the same counts, the results for `O=C(O)CCC(=O)O.c1ccc(-c2ncc3cc(-n4ccnc4)ccc3n2)cc1` [succinate salt form C, 6-(1H-imidazol-1-yl)-2-phenylquinazoline succinate] are “stable” and “not hygroscopic”.
As for `O.O.O.O.O=C(O)C(O)C(O)C(=O)O.c1ccc(-c2ncc3cc(-n4ccnc4)ccc3n2)cc1` [tartrate salt form B, 6-(1H-imidazol-1-yl)-2-phenylquinazoline (L)-tartrate tetrahydrate], the “thermal stability of crystalline form” value is reported as “stable” in data set [1] (40° C., RH 85%, 7 days, XRPD) and “gives rise to the amorphous form” in data set [1] (setting [8]).
In the case of `O.O=C(O)C(O)C(O)C(=O)O.c1ccc(-c2ncc3cc(-n4ccnc4)ccc3n2)cc1` [tartrate salt form C, 6-(1H-imidazol-1-yl)-2-phenylquinazoline (L)-tartrate monohydrate], the “thermal stability of crystalline form” value in data set [1] (40° C., RH 85%, 7 days, XRPD) is on record as “stable”; in data set [1] (setting [8]), “stable”.
For the compound `O=C(O)C(O)C(O)C(=O)O.c1ccc(-c2ncc3cc(-n4ccnc4)ccc3n2)cc1` [tartrate salt form D, 6-(1H-imidazol-1-yl)-2-phenylquinazoline (L)-tartrate], the “thermal stability of crystalline form” value in data set [1] (40° C., RH 85%, 7 days, XRPD) is listed as “gives an XRPD corresponding to form A”; in data set [1] (setting [8]), “an amorphous product”.
